# Measured values taken from patent US9532994B2, “Agents and methods for enhancing bone formation by oxysterols in combination with bone morphogenic proteins” (THE REGENTS OF THE UNIVERSITY OF CALIFORNIA, priority 2003, dated 2017).
# Experiments:
# [1] = test system: M2-10B4 mouse marrow stromal cell line; assay: Matrix mineralization in M2 cells (von Kossa staining, 45Ca incorporation assay); format: cell-based; details: for inhibition of oxysterol-induced mineralization: with 22R+20S (2.5 μM each), 10 days, 45Ca incorporation (FIGS. 9B, 9F)
# Method: (§1) Cells: M2-10B4 mouse marrow stromal cell line obtained from American Type Culture Collection (ATCC, Rockville, Md., U.S.A.) was derived from bone marrow stromal cells of a (C57BL/6J×C3H/HeJ) F1 mouse, and support human and murine myelopoiesis in long-term cultures (as per ATCC) and have the ability to differentiate into osteoblastic and adipocytic cells. Unless specified, these cells were cultured in RPMI 1640 containing 10% heat-inactivated FBS, and supplemented with 1 mM sodium pyruvate, 100 U/ml penicillin, and 100 […] (all from Irvine Scientific).
# (§2) Von Kossa and oil red O staining—Matrix mineralization in cell monolayers was detected by silver nitrate staining as previously described. Oil red O staining for detection of adipocytes was performed as previously described.
# ^45Ca incorporation assay—Matrix mineralization in cell monolayers was quantified using the ^45Ca incorporation assay as previously described.
# M2 cells at confluence were treated in osteogenic medium with control vehicle or 5 μM oxysterols, alone or in combination as indicated. After 14 days, mineralization was identified by a von Kossa staining, which appears black. FIG. 3C is a depiction of von Kossa staining of M2 cells exposed to various conditions.
# M2 cells were treated with control vehicle (C) or a combination of 22R and 20S oxysterols at increasing concentrations. After 14 days, matrix mineralization in cultures was quantified using a ^45Ca incorporation assay. […] FIG. 3D is a bar graph depicting the effect of a combination of oxysterols at various doses on calcium incorporation in M2 cells.
# (§3) Next, a combination of 22R and 20S oxysterols (RS, 2.5 μM each) were added in the presence or absence of SC as indicated. After 3 days, ALP activity was measured as described earlier. […] (B) M2 cells were treated as described in (A) and after 10 days matrix mineralization in cultures was quantified by a ^45Ca incorporation assay as described earlier. Results from a representative of three experiments are shown, reported as the mean±SD of quadruplicate determinations, normalized to protein concentration. (C) M2 cells were pretreated with 20 μM SC for 4 hours, followed by the addition of RS in the presence or absence of SC as described above. After 8 days, total RNA was isolated and analyzed for osteocalcin (Osc) and 18S rRNA expression by Northern blotting as previously described. Data from densitometric analysis of the Northern blot is shown in (D) as the average of duplicate samples, normalized to 18S rRNA. (E) M2 cells at confluence were pretreated for 2 hours with control vehicle (C), or PLA2 inhibitors ACA (25 μM) and MCOCF3 (MC, 20 μM), in osteogenic medium. Next, a combination of 22R and 20S oxysterols (RS, 2.5 μM) was added in the presence or absence of the inhibitors as indicated. After 3 days, ALP activity was measured as previously described. Data from a representative of three experiments are shown, reported as the mean±SD of quadruplicate determinations, normalized to protein concentration (p<0.01 for RS vs. RS+ACA and RS+MC). (F) M2 cells were treated as described in (E). After 10 days, matrix mineralization in cultures was quantified using a ^45Ca incorporation assay as previously described. Results from a representative of three experiments are shown, reported as the mean of quadruplicate determinations±SD, normalized to protein concentration (p<0.01 for RS vs. RS+ACA and RS+MC).
# (A) M2 cells at confluence were pretreated for four hours with RPMI containing 1% FBS, followed by treatment with control vehicle or 5 μM 20S oxysterol for 1, 4, or 8 hours. Next total cell extracts were prepared and analyzed for levels of native or phosphorylated ERK (pERK) using specific antibodies as previously described.
# [2] = test system: M2-10B4 mouse marrow stromal cell line; assay: Alkaline phosphatase (ALP) activity assay in M2 cells; format: cell-based; details: for inhibition of oxysterol-induced alkaline phosphatase activity: with 22R+20S (2.5 μM each), 3 days, SC 10 μM, ACA 25 μM, MC 20 μM (FIGS. 9A, 9E)
# Method: as §1
# Alkaline phosphatase activity assay: Colorimetric alkaline phosphatase (ALP) activity assay on whole cell extracts was performed as previously described. […]
# Test 2: M2 cells were grown in RPMI medium containing 10% fetal bovine serum (FBS). At confluence, the cells were treated in RPMI containing 5% FBS plus ascorbate at 50 μg/ml and β-glycerophosphate at 3 mM to induce osteoblastic differentiation. Adipogenic differentiation was induced by treating the cells in growth medium plus 10 ˜M troglitazone. A vehicle (C) or oxysterol treatment was applied to cells in a variety of doses (in μM): 20S-Hydroxycholesterol, 25-Hydroxycholesterol, 22R-Hydroxycholesterol; 22S-Hydroxycholesterol; 7-ketocholesterol. Cells were always treated at 90% confluence. After 4 days, alkaline phosphatase activity was determined in whole cell lysates and normalized to protein. Alternatively, MSC cultures were prepared and treated with oxysterols as described above. Cells were treated at 90% confluence with the combination of 22R-Hydroxycholesterol and 20S-Hydroxycholesterol, each at 5 μM, for 4 to 96 hours. The oxysterols where removed and fresh media without oxysterols was added for a total duration of 96 hours. Alkaline phosphatase activity was measured in whole cell extracts and normalized to protein.
# M2 cells were treated at 90% confluence with vehicle (C), or oxysterols 20S-Hydroxycholesterol or 22S-Hydroxycholesterol at (0.5 μM) or (1 μM), in the absence or presence of cytochrome P450 inhibitor (SKF525A 10 μM (+)). MSC cultures were also treated at 90% confluence with vehicle (C), or 20S-Hydroxycholesterol (2 μM), in the absence or presence of cytochrome P450 […] (Benzylimidazole 50 μM) or SKF525A (10 μM). After 4 days, alkaline phosphatase activity was measured in whole cell extracts and normalized to protein. […]
# [3] = test system: osteocalcin mRNA in M2 cells; assay: Northern blotting for osteocalcin mRNA in M2 cells; format: cell-based, mouse; details: TO treatment, after 10 days
# Method: The extent of gene induction was determined by densitometry.
# After 4 and 8 days, total RNA from duplicate samples was isolated and analyzed for osteocalcin (Osc) and 28S rRNA expression by Northern blotting as described. FIG. 3E is a radiogram of Northern blotting for osteocalcin mRNA in M2 cells exposed to a control or combination of oxysterols for 4 or 8 days. FIG. 3F is a bar graph depicting the relative demsometric units of osteocalcin mRNA in M2 cells exposed to a control or combination of oxysterols for 4 or 8 days. Data from densitometric analysis of the Northern blot is shown in (F) as the average of duplicate samples, normalized to 28S rRNA.
# as §3, with “(E).” for “(E). After 10 days, matrix mineralization in cultures was quantified using a ^45Ca incorporation assay as previously described. Results from a representative of three experiments are shown, reported as the mean of quadruplicate determinations±SD, normalized to protein concentration (p<0.01 for RS vs. RS+ACA and RS+MC).”
# M2 cells [4] = assay: Non-toxic doses in M2 cell cultures; format: cell-based, mouse
# marrow stromal cells = assay: Osteogenic activity/effects of oxysterol combinations in marrow stromal cells, readout not specified; format: cell-based, mouse; details: NS-398 at 20 μM, M2 cells
# M2 cells [5] = assay: Adipogenesis of M2 cells, oil Red O staining and adipocyte count; format: cell-based, mouse; details: 10 μM Tro, 10 μM oxysterols, alone or in combination, 10 days (FIG. 7)
# Method: as §2
# Test 1: M2 cells at 90% confluence were treated with vehicle (C), PPAR-γ activator, troglitazone 10 uM (Tro), alone or in combination with 10 μM oxysterols 20S-, 22R-, or 25S-hydroxycholesterol. After 8 days, adipocytes were identified by oil Red O staining and quantified by counting under a phase contrast microscope. FIG. 6A is a bar graph depicting the effect of oxysterols on reducing adipogenesis of MSC.
# Test 2: (A) M2 cells at confluence were treated in RPMI containing 10% FBS with control vehicle or 10 μM troglitazone (Tro) in the absence or presence of 10 μM 20S or 22S oxysterols. After 10 days, adipocytes were visualized by oil Red O staining and quantified by light microscopy, shown in (B). Data from a representative of four experiments are shown, reported as the mean SD of quadruplicate determinations (p<0.001 for Tro vs. Tro+20S and Tro+22S). (C) M2 cells were treated at confluence with 10 μM Tro, alone or in combination with 10 μM 20S oxysterol. After 10 days, total RNA was isolated and analyzed for lipoprotein lipase (LPL), adipocyte P2 gene (aP2) or 18S rRNA expression by Northern blotting as described (Ref). Data from densitometric analysis of the Northern blot is shown in (D) as the average of duplicate samples, normalized to 18S rRNA.
smiles,measurement,setting,value
CCCCC/C=C\C/C=C\C/C=C\C/C=C\CCCC(=O)C(F)(F)F [AACOCF3],inhibition of oxysterol-induced mineralization,[1],inhibited
same,inhibition of oxysterol-induced alkaline phosphatase activity,[2],inhibited
CCCCCc1ccc(/C=C/C(=O)Nc2ccccc2C(=O)O)cc1 [ACA],inhibition of oxysterol-induced mineralization,[1],inhibited
same,inhibition of oxysterol-induced alkaline phosphatase activity,[2],inhibited
CCCC(C(=O)OCCN(CC)CC)(c1ccccc1)c1ccccc1.Cl [SKF525A],effect on osteogenic effects of the oxysterols (alkaline phosphatase activity),"[2]; SKF525A 10 μM with 20S or 22S at 0.5 or 1 μM, 4 days (FIG. 5A)",potentiated
"CCCCC[C@H](O)/C=C/[C@H]1[C@H](O)CC(=O)[C@@H]1C/C=C\CCCC(=O)O [PGE2, prostaglandin E2]",reversal of effect of COX-1 inhibitor on oxysterol-induced alkaline phosphatase activity,"[2]; 1 μM PGE2, data not shown",reversed
COc1cccc(-c2cc(=O)c3ccccc3o2)c1N [PD98059],inhibition of oxysterol-induced mineralization by ERK pathway inhibitor,"[1]; 20 μM PD with 22R+20S (5 μM each), 10 days (FIG. 10B)",inhibited
CCCCC/C=C\C/C=C\C/C=C\C/C=C\CCCC(=O)O [arachidonic acid],reversal of effect of PLA2 inhibitors on oxysterol-induced alkaline phosphatase activity,"[2]; 25 μM arachidonic acid, data not shown",reversed
"O=S(=O)(c1ccccc1)N(CC(F)(F)F)c1ccc(C(O)(C(F)(F)F)C(F)(F)F)cc1 [TO, TO-901317]",induction of mineralization,"[1]; TO treatment, after 10 days",did not induce
same,"osteoblastic differentiation (alkaline phosphatase activity), LXR ligands","[2]; 1-4 μM, 4 days (FIG. 8)",inhibited
same,inhibition of alkaline phosphatase activity,[2]; TO at 1-10 μM,dose-dependent inhibition
same,alkaline phosphatase activity,"[2]; ligands used at 10 μM, ±SD, control vehicle C: 18±2, p<0.01 for C vs. all ligands",3±0.5 activity units/mg protein
same,induction of osteocalcin gene expression,[3],did not induce
CS(=O)(=O)Nc1ccc([N+](=O)[O-])cc1OC1CCCCC1 [NS-398],highest non-toxic dose,M2 cells [4],20 µM
same,inhibition of osteogenic effects of oxysterol combination,marrow stromal cells,negligible inhibitory effects
"CC(C)CCC[C@@H](C)[C@H]1CC[C@H]2[C@@H]3C(=O)C=C4C[C@@H](O)CC[C@]4(C)[C@H]3CC[C@]12C [7K, 7-ketocholesterol, reference compound]",induction of alkaline phosphatase activity,"[2]; 10 μM oxysterols, osteogenic medium, 3 days (FIG. 3A)",did not induce
same,adipogenesis induced by troglitazone,M2 cells [5],unable to inhibit
